How the values were obtained:
[1] = tested on: Mycobacterium tuberculosis; parameters: species or system human; conditions: in vivo
[2] = Complications of pregnancy (Protocol C); parameters: species or system human; conditions: in vivo
Protocol: L-Glu-L-Trp was administered to 34 pregnant women and 27 pregnant women receiving conventional treatment served as a control group. […] Signs of clinical improvement were resolution of weakness and dizziness, increased appetite, and the normalization of the immunological and hematological indices.

Chronic prostatitis = format: in vivo, human
Text: Thirty four patients (aged 22 to 45 years) with chronic prostatitis were entered into Group 1 of this trial during the acute phase of their disease. Diagnosis was based on medical history, and physical examination of the prostate (palpated through the rectum). Laboratory testing included microscopic examination of prostate gland secretions, spermography and urinalysis. All patients had previously received full courses of unsuccessful therapy with antibacterial agents, and additional individualized therapy including uroantiseptics, spasmolytic, ganglion blockers, novocain paraprostate and presacral blocks, ultrasound, and prostate gland massage. Success of any individualized therapy was only partial and short-term. […]
Peripheral blood samples were collected for laboratory testing 10 days after the last injection of L-Glu-L-Trp. […]

[3] = tested on: peripheral blood lymphocytes; test: Breast cancer patients after radiotherapy treated with L-Glu-L-Trp 100 μg im daily; format: in vivo, human
Protocol: Thirty six patients with breast cancer were treated with conventional radiation therapy (i.e., single doses of about 2-3 Gy daily for 10 days; total cumulative patient dose of 20-30 Gy). Following radiotherapy the patients were treated with L-Glu-L-Trp by injection of daily dosages im of 100 μg. The patients had been previously treated with radiation therapy (single doses 2 Gy; total dose 20-30 Gy).

Staphylococci = test: Antibiotic sensitivity (doubling-dilution, MIC-2000) of patient isolates before and after Stage 1; format: cell-based
Protocol: Antibiotics were administered according to established dosages and routes: i.e., penicillin, Ampicillin, oxacillin, tetracycline, erythromycin, garamycin; administered by intramuscular route. Antibiotics were chosen according to the antibiotic sensitivity of the Staphylococci isolated from the respective patients. (Antibiotic sensitivity was determined by testing staphylococcal isolates for their sensitivity in an antibiotic sensitivity doubling-dilution assay with the aid of the semi-automatic MIC-2000 system, Dynatech, USA).
Staphylococci were isolated from patients before and after treatment in Stage 1 with L-Glu-L-Trp in order to determine whether a favorable reversal of T-lymphocyte immunodeficiency might lead to a change in the antibiotic sensitivity. The isolated bacterial colonies following Stage I were typed as follows: namely, in 16 patients S. aureus, in 34, S. epidermidis, in 2 saprophytic Staphylococci. In all cases the same types of Staphylococci were isolated following treatment with L-Glu-L-Trp, but in 4 patients the predominant Staphylococci in the isolates changed from S. aureus to S. epidermidis (n=2), and saprophytic Staphylococci (n=2).
Antibiotic sensitivity of Staphylococci were determined by doubling-dilution methods with the aid of the semiautomatic MIC-2000 system (Dynatech, USA).

[4] = Survival in LPS-induced endotoxic shock; format: in vivo, CBA mice; conditions: 100 μg/kg prophylactic
Protocol: The mortality results were evaluated using the Litchfield-Wilcoxon's probit analysis method and a computer program written to conduct probit analyses.

[5] = Allergies (hayfever protocol); parameters: species or system human; conditions: in vivo
Protocol: Twenty nine patients (29) with various diagnosed allergies were treated on a daily basis for 5-7 days with L-Glu-L-Trp at a dose of […] delivered im or by the intranasal route. Seventeen patients (17) in the control group received conventional therapy.

[6] = After L-Glu-L-Trp, pre-treatment value Decreased (n = 14)
[7] = Group 1, After L-Glu-L-Trp, 10 days after the last injection

Substance: L-Glu-L-Trp
- Clinical outcome at 2 months [1]: disappearance of toxic symptoms, a resorption of pulmonary infiltrates, and a resolution of pulmonary cavities
- Considerable Improvement, % of patients [1]: 24%
- Considerable Improvement, No. of patients [1]: 9
- Improvement, % of patients [1]: 73%
- Improvement, No. of patients [1]: 27
- No Change, % of patients [1]: 3%
- No Change, No. of patients [1]: 1
- Patients with closure of degeneration foci and cavities in the lungs [1]: 35 of the 37
- Patients with “improvement” [1]: 27
- Response rate [1]: 97%
- Clinical outcome [2]: Decreased fetal hypoxia
- IgG (Chronic prostatitis; After L-Glu-L-Trp, pre-treatment value Decreased (n = 2)): 7.8 ± 1.1 g/L
- Phagocytes (% of PBL) (Chronic prostatitis; After L-Glu-L-Trp, pre-treatment value Decreased (n = 5)): 36.6 ± 8.5 % of PBL
- Imm. Cmplx. (Chronic prostatitis; After L-Glu-L-Trp, pre-treatment value Decreased (n = 8)): 0.07 ± 0.01 units
- B-Lymphocytes (Chronic prostatitis; After L-Glu-L-Trp, pre-treatment value Decreased (n = 10)): 26.0 ± 2.9
- Complement (CH50) (Chronic prostatitis; [6]): 34.2 ± 0.9
- T-Lymphocytes (%) (Chronic prostatitis; [6]): 37.9 ± 2.2%
- IgM (Chronic prostatitis; After L-Glu-L-Trp, pre-treatment value Increased (n = 1)): 3.44 g/L
- T-Lymphocytes (%) (Chronic prostatitis; After L-Glu-L-Trp, pre-treatment value Increased (n = 2)): 40.0 ± 15.5%
- IgG (Chronic prostatitis; After L-Glu-L-Trp, pre-treatment value Increased (n = 6)): 14.7 ± 1.4 g/L
- Complement (CH50) (Chronic prostatitis; After L-Glu-L-Trp, pre-treatment value Increased (n = 7)): 30.7 ± 0.9
- B-Lymphocytes (Chronic prostatitis; After L-Glu-L-Trp, pre-treatment value Increased (n = 8)): 24.8 ± 2.9
- Imm. Cmplx. (Chronic prostatitis; After L-Glu-L-Trp, pre-treatment value Increased (n = 19)): 0.08 ± 0.01 units
- Phagocytes (% of PBL) (Chronic prostatitis; After L-Glu-L-Trp, pre-treatment value Increased (n = 26)): 37.7 ± 3.9 % of PBL
- Phagocytes (% of PBL) (Chronic prostatitis; After L-Glu-L-Trp, pre-treatment value Normal (n = 3)): 58.6 ± 18 % of PBL
- Imm. Cmplx. (Chronic prostatitis; After L-Glu-L-Trp, pre-treatment value Normal (n = 7)): 0.08 ± 0.01 units
- Complement (CH50) (Chronic prostatitis; After L-Glu-L-Trp, pre-treatment value Normal (n = 13)): 29.3 ± 0.9
- B-Lymphocytes (Chronic prostatitis; After L-Glu-L-Trp, pre-treatment value Normal (n = 16)): 29.2 ± 2.2
- T-Lymphocytes (%) (Chronic prostatitis; After L-Glu-L-Trp, pre-treatment value Normal (n = 18)): 50.0 ± 3.6%
- IgG (Chronic prostatitis; After L-Glu-L-Trp, pre-treatment value Normal (n = 26)): 12.5 ± 0.7 g/L
- IgM (Chronic prostatitis; After L-Glu-L-Trp, pre-treatment value Normal (n = 33)): 2.08 ± 0.12 g/L
- IgA (Chronic prostatitis; After L-Glu-L-Trp, pre-treatment value Normal (n = 34)): 2.2 ± 0.12 g/L
- “Unsatisfactory” results (Chronic prostatitis; Group 1): No “unsatisfactory” results were recorded
- B-Lymphocytes: % of PBL (Chronic prostatitis; [7]): 27.2 ± 1.4 % of PBL
- B-Lymphocytes: No. (Chronic prostatitis; [7]): 0.54 ± 0.1 10^9/L
- Complement (CH50) (Chronic prostatitis; [7]): 29.4 ± 0.5
- IgA (Chronic prostatitis; [7]): 2.2 ± 0.1 g/L
- IgG (Chronic prostatitis; [7]): 12.5 ± 0.6 g/L
- IgM (Chronic prostatitis; [7]): 2.1 ± 0.1 g/L
- Immune Complexes (Chronic prostatitis; [7]): 0.80 ± 0.004 units
- Phagocytes: % PBL (Chronic prostatitis; [7]): 39.4 ± 3.5 % PBL
- T-Lymphocytes: % of Lym (Chronic prostatitis; [7]): 44.4 ± 2.3 % of Lym
- T-Lymphocytes: No. (Chronic prostatitis; [7]): 0.88 ± 0.1 10^9/L
- B-lymphocyte (Ig+) [3]: 0.17 ± 0.02 ×10^9/L
- B-lymphocyte (Ig+), Ratio Post-Rad/Pre-Rad Value [3]: (1.1)
- B-lymphocyte (Ig+), Ratio Post-Treat/Pre-Treat Value [3]: (1.55)
- C3-complement [3]: 0.68 ± 0.04 g/L
- DTH to tuberculin [3]: 8.7 ± 0.6 mm
- DTH to tuberculin, Ratio Post-Rad/Pre-Rad Value [3]: (1.2)
- Granulocyte Cation Proteins [3]: 1.49 ± 0.12
- Granulocyte Phagocytic Index [3]: 3.7 ± 0.2
- LMI with ConA [3]: 71 ± 5 %
- Lymphocytes [3]: 1.72 ± 0.21 ×10^9/L
- Lymphocytes, Ratio Post-Rad/Pre-Rad Value [3]: (1.1)
- Lymphocytes, Ratio Post-Treat/Pre-Treat Value [3]: (2.18)
- OKT4+/OKT8+ [3]: 1.86 ± 0.17
- T-Lymphocytes [3]: 0.92 ± 0.12 ×10^9/L
- T-helpers (OKT4+) [3]: 0.39 ± 0.04 ×10^9/L
- T-helpers (OKT4+), Ratio Post-Rad/Pre-Rad Value [3]: (1.3)
- T-helpers (OKT4+), Ratio Post-Treat/Pre-Treat Value [3]: (3.25)
- T-lymphocytes, Ratio Post-Rad/Pre-Rad Value [3]: (1.1)
- T-lymphocytes, Ratio Post-Treat/Pre-Treat Value [3]: (2.88)
- T-suppressors (OKT8+) [3]: 0.21 ± 0.03 ×10^9/L
- T-suppressors (OKT8+), Ratio Post-Rad/Pre-Rad Value [3]: (0.8)
- T-suppressors (OKT8+), Ratio Post-Treat/Pre-Treat Value [3]: (1.31)
- “Active” T-lymphocytes [3]: 0.52 ± 0.07 ×10^9/L
- “Active” T-lymphocytes, Ratio Post-Rad/Pre-Rad Value [3]: (1.1)
- “Active” T-lymphocytes, Ratio Post-Treat/Pre-Treat Value [3]: (2.74)
- Patients with decreased MIC of antibiotic for isolated bacteria (Staphylococci; conclusion of Stage 1): 78%
- Increase in antibiotic sensitivity of isolates (Staphylococci; in certain cases): > 100 fold
- Survivors at 24 hr. and 30 hr. [4]: statistically significant difference in the number of survivors
- Clinical outcome [5]: disappearance of allergic reactions
